The subject of data set [1] is hepatic P450 monoxygenase activities. The experiment in a line: Microsomal hydroxylation of testosterone in liver microsomes. The following applies: liver microsomes of hepatic CPR nulls of both sexes.
Data set [2] has the same test system. The data set can be described thus: O-dealkylation of 7-methoxyresorufin in hepatic microsomes. The following applies: CPRlox/- +CreALB mice, nmol metabolite per nmol P450.
Data set [3] relates to control, CPR heterozygous null and hepatic CPR null mice. The experiment in a line: Pentobarbital sleep time (regain of righting reflex). The class given is in vivo, mouse. The following applies: 20 mg/kg i.p. The protocol: c Time taken for regain of righting reflex in adult male mice of various genotypes following treatment with sodium pentobarbital at 20 mg/kg i.p. (n=3). Values are expressed as mean±SEM.
Pentobarbital sleep time—adult male CPR^lox/lox+Cre^ALB, CPR^lox/−+Cre^ALB, CPR^lox/− and CPR^+/++Cre^ALB mice (n=3) were given a single intraperitoneal (i.p.) dose of sodium pentobarbitone (Sagatal) at 20 mg/kg body weight. The time taken for the mice to lose, and subsequently to regain, their righting reflex was measured.
Cytochrome P450s involved in drug metabolism are distributed throughout the tissues of the body; it has been estimated that a significant proportion of drug metabolism (up to 30%) may be extra-hepatic. In order to test the level of extra-hepatic metabolism as well as the in vivo effects of hepatic CPR nulls on drug disposition, we measured barbiturate-induced sleeping times. This method has been used since the 1960s as an indicator of drug metabolising activity.

Molecules are shown by their SMILES.

On to `C[C@]12CC[C@H]3[C@@H](CCC4=CC(=O)CC[C@@]43C)[C@@H]1CC[C@@H]2O` [testosterone], for which the 16-hydroxylation of testosterone entry in data set [1] is listed as “undetectable”.
On to `COc1ccc2nc3ccc(=O)cc-3oc2c1` [7-methoxyresortifin], for which the “reduction of O-dealkylation” value in data set [2] (females) is recorded as 98.5%; in data set [2] (males), 99.5%.
With `CCCC(C)C1(CC)C(=O)NC(=O)NC1=O` (stereo not drawn) [pentobarbitone], in data set [3] (CPR heterozygous null mice (CPR+/-)), the average sleeping period result was “approximately 50 minutes”. Also, the induction of sleep result in data set [3] (control mice) is “failed to induce sleep”. Besides, in data set [3] (mice lacking hepatic CPR (CPRlox/- +CreALB or CPRlox/lox +CreALB)), the sleeping period is > 2 h.

(Values after patent US7700822B2, “Modulation of cytochrome P450 reductase activity” (Cancer Research Technology Limited, priority 2002, dated 2010).)
